This experiment addresses T1, LRPPRC (Leucine-rich pentatricopeptide repeat-containing protein) (Homo sapiens, UniProt P42704).
T1 construct: GST fusion)
Nature of the experiment: Intrinsic fluorescence quenching titration of purified LRPPRCΔ[…]; confirmed by BLI (KD […]) and CETSA in A549 and H1299 cells. The format is binding.

By Kd is commonly meant the constant that tells how readily two partners part at equilibrium.

T1 sequence (P42704 1121-1394): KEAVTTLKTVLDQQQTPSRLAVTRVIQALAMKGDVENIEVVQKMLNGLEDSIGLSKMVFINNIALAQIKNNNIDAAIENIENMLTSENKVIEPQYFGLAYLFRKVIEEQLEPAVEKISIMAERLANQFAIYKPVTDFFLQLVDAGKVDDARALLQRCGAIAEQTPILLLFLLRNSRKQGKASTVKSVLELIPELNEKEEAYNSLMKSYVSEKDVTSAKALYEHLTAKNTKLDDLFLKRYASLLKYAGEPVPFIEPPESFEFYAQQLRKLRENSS

As for `C[C@@]1(C(=O)O)CC[C@]2(C)CC[C@]3(C)C4=CC(=O)c5c(cc(O)c(O)c5C=O)[C@]4(C)CC[C@@]3(C)[C@@H]2C1` [T-96, Demethylzeylasteral], the affinity, expressed as Kd, was 21.4 µM.

(Values after publication PMC11660126, “Demethylzeylasteral inhibits oxidative phosphorylation complex biogenesis by targeting LRPPRC in lung cancer” (Journal of Cancer, 2025).)
